Consider two molecules from publication PMC5642273 (Biochemistry, 2017).

Experiment [1] has as its target T1, (+)-limonene synthase [(+)-LS] (Citrus sinensis, UniProt A0A1C9J6A7). The experiment in a line: X-ray crystal structure. The format is biochemical.
In experiment [2] the target is T1, (+)-limonene synthase [(+)-LS]. The experiment in a line: X-ray crystal structure. The format is biochemical. This is another data set of the same source.

Read-outs that look alike come from different tables or passages of the source.

T1 sequence (A0A1C9J6A7 53-607): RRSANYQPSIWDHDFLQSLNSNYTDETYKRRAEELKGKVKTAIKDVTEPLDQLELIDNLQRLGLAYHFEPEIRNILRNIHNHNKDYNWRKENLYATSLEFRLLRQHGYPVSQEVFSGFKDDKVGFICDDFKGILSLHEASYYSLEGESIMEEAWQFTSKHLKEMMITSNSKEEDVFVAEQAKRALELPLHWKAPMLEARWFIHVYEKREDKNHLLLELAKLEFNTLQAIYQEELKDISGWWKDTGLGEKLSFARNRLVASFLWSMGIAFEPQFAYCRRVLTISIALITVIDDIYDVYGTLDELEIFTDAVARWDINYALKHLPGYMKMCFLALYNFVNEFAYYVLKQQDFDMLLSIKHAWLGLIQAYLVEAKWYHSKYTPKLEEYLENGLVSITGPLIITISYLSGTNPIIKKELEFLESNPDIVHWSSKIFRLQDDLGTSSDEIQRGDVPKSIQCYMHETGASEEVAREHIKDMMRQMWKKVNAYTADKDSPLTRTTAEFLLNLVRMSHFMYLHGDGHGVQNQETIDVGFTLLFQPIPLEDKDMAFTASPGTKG

What is called Ki is the dissociation constant of the complex between target and ligand, obtained from inhibition or displacement. Low readings indicate higher affinity, high ones lower affinity. Consider `CC(C)=CCC/C(C)=C(\F)COP(=O)(O)OP(=O)(O)O` [FGPP, 2-fluorogeranyl diphosphate], for which, in experiment [1], affinity was put at a Ki of 2.4 ± 0.5 µM.

In experiment [2], `CC(C)=CCC/C(C)=C(/F)COP(=O)(O)OP(=O)(O)O` [FNPP, 2-fluoroneryl diphosphate] registered a Ki of 39.5 ± 5.2 µM.
